# Data as given in patent US9278958B2, “Anti-cancer compounds” (KATHOLIEKE UNIVERSITEIT LEUVEN, priority 2012, dated 2016).
# Read-outs that look alike come from different tables or passages of the source.
# Key:
# [1] = system: HeLa cervix carcinoma cells; assay: Cytostatic assay, HeLa; format: cell-based, human; settings: Homo sapiens; Table 3; read-out: Cytostatic activity (μM) Hela
# Description: (§1) To each well of a 96-well microtiter plate were added 5-7.5×10^4 cells and a given amount of the test compound. The cells were allowed to proliferate for 48 h to 96 h (depending on the nature of the cell line) at 37° C. in a humidified CO2-controlled atmosphere. At the end of the incubation period, the cells were counted in a Coulter Counter (Coulter Electronics Ltd, Harpenden Herts, United Kingdom).
# BPH-1 (UZ) = assay: Cytostatic assay, BPH-1 (UZ); format: cell-based; settings: Homo sapiens, Table 4
# Description: as §1
# MT-2 cells = assay: Cytostatic assay, MT-2; format: cell-based; settings: Homo sapiens, MT2; Table 2
# Description: as §1
# L1210 cells = assay: Cytostatic assay, L1210; format: cell-based; settings: Mus musculus, Table 2
# Description: as §1
# [2] = system: Raji, human B-lymphoma cells; assay: Cytostatic assay, Raji; format: cell-based; settings: Table 2
# Description: as §1
# [3] = system: HL60, human leukemia cells; assay: Cytostatic assay, HL-60; format: cell-based; settings: Table 2
# Description: as §1
# [4] = system: MCF-7 mammary carcinoma cells; assay: Cytostatic assay, MCF-7; format: cell-based; settings: Homo sapiens, MCF7; Table 3
# Description: as §1
# [5] = system: Caki-2 kidney carcinoma cells; assay: Cytostatic assay, Caki-2; format: cell-based; settings: Homo sapiens, Table 3
# Description: as §1
# [6] = system: PC3 (rega) prostate cancer cells; assay: Cytostatic assay, PC3 (rega); format: cell-based; settings: Table 4
# Description: as §1
# [7] = system: PC-3 (UZ) prostate cancer cells; assay: Cytostatic assay, PC-3 (UZ); format: cell-based; settings: Table 4
# Description: as §1
# [8] = system: DU145 (UZ) prostate cancer cells; assay: Cytostatic assay, DU145 (UZ); format: cell-based; settings: Homo sapiens, DU-145; Table 4
# Description: as §1
# MT-4 cells = assay: Cytostatic assay, MT-4; format: cell-based; settings: Homo sapiens, MT4; Table 2
# Description: as §1
# CEM cells = assay: Cytostatic assay, CEM; format: cell-based; settings: Homo sapiens, CCRF-CEM
# Description: as §1
# HepG2C3A hepatoma cells = assay: Cytostatic assay, HepG2C3A; format: cell-based; settings: Homo sapiens, HepG2/C3A; Table 4
# Description: as §1
# [9] = system: FM3A mammary carcinoma cells; assay: Cytostatic assay, FM3A; format: cell-based, murine; settings: Mus musculus, Table 3
# Description: as §1
# [10] = system: U937, human monocytic cells; assay: Cytostatic assay, U937; format: cell-based; settings: U-937, Table 2
# Description: as §1
# [11] = system: LNCaP (UZ) prostate cancer cells; assay: Cytostatic assay, LNCaP (UZ); format: cell-based; settings: Homo sapiens, Table 4
# Description: as §1
# PLC/PRF/5 hepatoma cells = assay: Cytostatic assay, PLC/PRF/5; format: cell-based; settings: Homo sapiens, Table 4
# Description: as §1
# C8166 cells = assay: Cytostatic assay, C8166; format: cell-based; settings: Homo sapiens, Table 2
# Description: as §1
# [12] = system: BAEC aortic endothelial cells; assay: Cytostatic assay, BAEC; format: cell-based, bovine; settings: Bos taurus, Table 3
# Description: as §1
# [13] = system: PNT1A (UZ) prostate cells; assay: Cytostatic assay, PNT1A (UZ); format: cell-based; settings: Homo sapiens, Table 4
# Description: as §1
# [14] = system: 293T embryonic kidney cells; assay: Cytostatic assay, 293T; format: cell-based; settings: Homo sapiens, HEK-293T; Table 3
# Description: as §1
# [15] = system: Caki-1 kidney carcinoma cells; assay: Cytostatic assay, Caki-1; format: cell-based; settings: Homo sapiens, Table 3
# Description: as §1
# Sup T1 cells = assay: Cytostatic assay, Sup T1; format: cell-based; settings: Homo sapiens, Table 2, read-out: Cytostatic activity (μM) Sup T 1
# Description: as §1
# [16] = system: THP-1, human monocytic cells; assay: Cytostatic assay, THP-1; format: cell-based; settings: Table 2
# Description: as §1
# [17] = system: HT29 colorectal carcinoma cells; assay: Cytostatic assay, HT29; format: cell-based; settings: Homo sapiens, HT-29; Table 3
# Description: as §1
# Huh-7 hepatoma cells = assay: Cytostatic assay, Huh-7; format: cell-based; settings: Homo sapiens, Table 4
# Description: as §1
# [18] = system: 22Rv1 (UZ) prostate cancer cells; assay: Cytostatic assay, 22Rv1 (UZ); format: cell-based; settings: Homo sapiens, Table 4
# Description: as §1
# HUT-78 cells = assay: Cytostatic assay, HUT-78; format: cell-based; settings: Homo sapiens, HuT78; Table 2
# Description: as §1
# [19] = system: OST TK- osteosarcoma cells; assay: Cytostatic assay, OST TK-; format: cell-based; settings: Homo sapiens; Table 3
# Description: as §1
# U87 glioma cells = assay: Cytostatic assay, U87; format: cell-based; settings: Homo sapiens, U-87 MG; Table 3
# Description: as §1
# Molt4/C8 cells = assay: Cytostatic assay, Molt4/C8; format: cell-based; settings: Table 2
# Description: as §1
# [20] = system: HEL embryonic lung fibroblast cells; assay: Cytostatic assay, HEL; format: cell-based; settings: Homo sapiens, Table 3
# Description: as §1
# [21] = Table 1a, read-out: IC50 μM (CEM)
# [22] = Table 2, read-out: Cytostatic activity (μM) CEM
Compound,IC50 [1] [µM],IC50 (BPH-1 (UZ)) [µM],IC50 (MT-2 cells) [µM],IC50 (L1210 cells) [µM],IC50 [2] [µM],IC50 [3] [µM],IC50 [4] [µM],IC50 [5] [µM],IC50 [6] [µM],IC50 [7] [µM],IC50 [8] [µM],IC50 (MT-4 cells) [µM],IC50 (CEM cells; [21]) [µM],IC50 (CEM cells; [22]) [µM],IC50 (HepG2C3A hepatoma cells) [µM],IC50 [9] [µM],IC50 [10] [µM],IC50 [11] [µM],IC50 (PLC/PRF/5 hepatoma cells) [µM],IC50 (C8166 cells) [µM],other results
"COc1ccc(CCc2cc(C#N)c(N)s2)cc1 [TR586, 2-Amino-5-[2-(4-methoxy-phenyl)-ethyl]-thiophene-3-carbonitrile]",21 ± 9.9,59 ± 18,6.8 ± 3.7,14 ± 4,36 ± 21,1.9 ± 0.42,114 ± 62,28 ± 27,1.8 ± 2,4.2 ± 0.14,8.3 ± 2.5,74 ± 37,16,16 ± 17,46 ± 13,34 ± 23,17 ± 2.8,0.83 ± 0.35,37 ± 0.71,57 ± 56,IC50 [12]: 38 ± 2.1 µM; IC50 [13]: 38 ± 14 µM; IC50 [14]: 28 ± 3.5 µM; IC50 [15]: 1.9 ± 0.42 µM; IC50 (Sup T1 cells): 79 ± 42 µM; IC50 [16]: 4.3 ± 0.6 µM; IC50 [17]: 34 ± 6.4 µM; IC50 (Huh-7 hepatoma cells): > 100 µM; IC50 [18]: 17 ± 8.1 µM; IC50 (HUT-78 cells): 17 ± 8.1 µM; IC50 [19]: 27 ± 18 µM; IC50 (U87 glioma cells): > 100 µM; IC50 (Molt4/C8 cells): 1.4 ± 0.8 µM; IC50 [20]: > 100 µM
"COC(=O)c1cc(CCc2cccnc2)sc1N [TR597, 2-Amino-5-(2-pyridin-3-yl-ethyl)-thiophene-3-carboxylic acid methyl ester]",170 ± 25,> 100,38 ± 15,235 ± 49,> 100,63 ± 15,71 ± 30,> 200,6.3 ± 4.7,12 ± 5.5,60 ± 21,> 100,50,50 ± 6.4,> 100,164 ± 30,> 200,7.4 ± 0.75,> 100,≥ 200,IC50 [12]: > 100 µM; IC50 [13]: > 100 µM; IC50 [14]: > 100 µM; IC50 [15]: 7.7 ± 0.5 µM; IC50 (Sup T1 cells): 147 ± 66 µM; IC50 [16]: > 200 µM; IC50 [17]: > 100 µM; IC50 (Huh-7 hepatoma cells): 78 ± 32 µM; IC50 [18]: ≥ 100 µM; IC50 (HUT-78 cells): 59 ± 33 µM; IC50 [19]: ≥ 111 µM; IC50 (U87 glioma cells): > 100 µM; IC50 (Molt4/C8 cells): 47 ± 15 µM; IC50 [20]: ≥ 100 µM
"CCOC(=O)c1cc(-c2ccccc2OC)sc1N [TR531, 2-Amino-5-(2-methoxy-phenyl)-thiophene-3-carboxylic acid ethyl ester]",40 ± 9,39,27 ± 4.2,41 ± 3,48 ± 13,17 ± 5.7,48 ± 11,17 ± 3.5,25 ± 6.4,28 ± 0.71,34 ± 4.2,44 ± 5.7,27,27 ± 10,10 ± 5.2,49 ± 1,73 ± 3.5,11 ± 5,21 ± 0.71,133 ± 7.8,IC50 [12]: 31 ± 6.4 µM; IC50 [13]: 45 ± 1.4 µM; IC50 [14]: 58 ± 7.1 µM; IC50 [15]: 17 ± 3.5 µM; IC50 (Sup T1 cells): 28 ± 12 µM; IC50 [16]: 25 ± 19 µM; IC50 [17]: 43 ± 2.8 µM; IC50 (Huh-7 hepatoma cells): 43 ± 12 µM; IC50 [18]: 20 ± 5.1 µM; IC50 (HUT-78 cells): 108 ± 5.7 µM; IC50 [19]: 18 ± 1.4 µM; IC50 (U87 glioma cells): 38 ± 8.5 µM; IC50 (Molt4/C8 cells): 31 ± 2.1 µM; IC50 [20]: 25 ± 3.5 µM
"CCOC(=O)c1cc(CCc2cc(OC)ccc2OC)sc1N [TR587, 2-Amino-5-[2-(2,5-dimethoxy-phenyl)-ethyl]-thiophene-3-carboxylic acid ethyl ester]",0.33 ± 0.028,0.39 ± 0.007,0.7 ± 0.3,1.2 ± 0.4,1.8 ± 0.42,0.46 ± 0.35,0.83 ± 0.35,3.2 ± 2.4,0.33 ± 0.099,0.52 ± 0.007,1.4 ± 0.21,1.7 ± 0.59,0.76,0.76 ± 0.48,1.1 ± 0.49,2 ± 0.28,0.92 ± 0.08,0.35 ± 0.064,0.26 ± 0.15,0.82 ± 0.16,IC50 [12]: 0.93 ± 0.67 µM; IC50 [13]: 0.41 ± 0.028 µM; IC50 [14]: 1 ± 0.11 µM; IC50 [15]: 1.4 ± 0.5 µM; IC50 (Sup T1 cells): 0.54 ± 0.007 µM; IC50 [16]: 0.71 ± 0.18 µM; IC50 [17]: 1.7 ± 0.14 µM; IC50 (Huh-7 hepatoma cells): 0.71 ± 0.35 µM; IC50 [18]: 0.19 ± 0.11 µM; IC50 (HUT-78 cells): 0.43 ± 0.24 µM; IC50 [19]: 0.51 ± 0.42 µM; IC50 (U87 glioma cells): 1.6 ± 1.1 µM; IC50 (Molt4/C8 cells): 1.1 ± 1 µM; IC50 [20]: 0.27 ± 0.22 µM
